Experimental data reported in patent US5811271A, “Process for producing L-ketohexose” (Kabushiki Kaisha Hayashibara Seibutsu Kagaku Kenkyujo, priority 1994, dated 1998).

Molecular target: T1, D-ketohexose 3-epimerase (Pseudomonas cichorii, UniProt O50580)
T1 construct: The cells which had been recovered from 80 liters of the resultant culture were crushed by grinding; made in house; host or cells: Pseudomonas cichorii ST-24 (FERM BP-2736), the natural producer; not recombinant
Experiment: Relative enzyme activity of purified D-ketohexose 3-epimerase on L-ketohexose substrates
Format: biochemical, Pseudomonas cichorii ST-24
Settings: substrate in 0.1 M solution (pH 7.5), 11 units/g substrate of enzyme, 30° C., 24 hours; D-tagatose as control regarded as 100
Method: D-Ketohexose 3-epimerase was studied for relative enzyme activity on various L-ketohexoses. A purified D-ketohexose 3-epimerase obtained by the method in Example 1 was allowed to act on four different types of L-ketohexoses as substrates, i.e. L-psicose, L-fructose, L-sorbose and L-tagatose, to determine the enzyme activity on them. The reaction conditions were as follows: To either substrate in 0.1 M solution (pH 7.5) was added 11 units/g substrate of the enzyme and reacted at 30° C. for 24 hours. As a control, D-tagatose was used as substrate and the relative enzyme activity was regarded as 100.
The enzyme specimen thus obtained was assayed as follows: The reaction solution used in this assay consisted of 100 microliters of 50 mM Tris-HCl buffer (pH 7.5), 50 microliters 40 mM D-tagatose and 50 microliters of an enzyme solution. The enzymatic reaction was carried out at 30° C. for 60 minutes, and the formed D-sorbose was quantified on HPLC. One unit activity of the enzyme was defined as the amount of enzyme that epimerizes one micromol of D-tagatose into D-sorbose per minute.

Row | SMILES | Relative enzyme activity
1 | O=C(CO)[C@H](O)[C@@H](O)[C@@H](O)CO [L-Fructose] | about 5
2 | O=C(CO)[C@@H](O)[C@H](O)[C@@H](O)CO [L-Sorbose] | about 2
3 | O=C(CO)[C@@H](O)[C@@H](O)[C@H](O)CO [D-Tagatose, reference compound] | 100
4 | O=C(CO)[C@H](O)[C@H](O)[C@@H](O)CO [L-Tagatose] | about 0.5
5 | O=C(CO)[C@@H](O)[C@@H](O)[C@@H](O)CO [L-Psicose] | about 20
